Source: patent US11510924B2, “Deuterated pharmaceutical compositions and methods of treating cardiovascular diseases” (priority 2017, dated 2022)

Key:
volunteer subjects = assay: Heart rate effect of API combinations in volunteer subjects (Examples 1-3); settings: added API in combination with aminophylline and clenbuterol; small group of volunteer subjects
Procedure: To test this hypothesis, an experiment was conducted, where a combination of aminophylline and clenbuterol was administered to a small group of volunteer subjects. […] For each subject in this example, an electrocardiogram (ECG) was used to monitor heart rate and A-V conduction abnormalities.
To further improve the effect of the aminophylline and clenbuterol combination on the heart rate, various combinations with active pharmaceutical ingredients were investigated. Without being bound by theory, the hypothesis in this experiment was to utilize a combination of APIs with similar mechanism of action or with the same side effect (a secondary therapeutical effects) on heart as aminophylline and clenbuterol. Oryzanol, nicotinamide, or anisodamine in combination with aminophylline and clenbuterol was tested on a small group of volunteer subjects.
Nifedipine (a calcium channel blocker) was then selected and tested.
A combination of betahistine with aminophylline, clenbuterol, and nifedipine was then prepared and tested on a small group of healthy volunteer subjects.

patient = assay: Clinical observation of heart rate in patients treated for other indications; settings: vertigo patient, after administering betahistine
bradycardia patients = assay: API combinations tested on bradycardia patients (Examples 1-3); assay type: in vivo, human; settings: observed on some patients
Procedure: During the testing of the 4-API combination on bradycardia patients, a few adverse side effects were observed on some patients. […] Therefore, a further study was conducted to determine how to avoid or reduce such side effects. […] To confirm this finding, clenbuterol was replaced by albuterol in the 4-API combination, which has a similar secondary therapeutic effect on heart rate. […] Daily electrocardiograms were used to monitor the bradycardia patients. […] With this improvement, the effectiveness of the treatment on bradycardia patients was retained while the undesired side effects were minimized or eliminated.

CN1[C@H]2C[C@H](OC(=O)[C@H](CO)c3ccccc3)C[C@@H]1[C@@H](O)C2 [anisodamine]
effect on heart rate compared with aminophylline and clenbuterol combination (Example 1) (volunteer subjects): no further improvement

CNCCc1ccccn1 [betahistine]
effect on heart rate (patient): noticeably increased

CC(C)(C)NCC(O)c1cc(Cl)c(N)c(Cl)c1 (centres unmarked) [clenbuterol]
adverse side effects (bradycardia patients): these side effects were related to clenbuterol

NC(=O)c1cccnc1 [nicotinamide]
effect on heart rate compared with aminophylline and clenbuterol combination (Example 1) (volunteer subjects): no further improvement

Oryzanol
effect on heart rate compared with aminophylline and clenbuterol combination (Example 1) (volunteer subjects): no further improvement
